# Experimental data: patent US6060241A (priority 1997, dated 2000)
# How the values were obtained:
# [1] = target: T1, Hp 3-oxoacid CoA-transferase (Helicobacter pylori, UniProt P56006+P56007); experiment: 3-oxoacid CoA transferase activity reconstituted in E. coli, in the presence of inhibitors; format: biochemical; details: for Specific activity (mU/mg ± SD), 3-oxoacid CoA transferase, E. coli transformed with pCOA-t: substances (50 nM), lysate of E. coli transformed with pCoA-t, none = 2255 ± 7; for inhibition of Hp CoA-transferase (in words): statement that refers to Example 11
# T1 construct: second column endogenous enzyme in H. pylori lysate
# Procedure: For 3-oxoadipate-CoA and 3-oxoacid CoA-transferase assays (FIGS. 7A, 7B, and 7C), E. coli cells transformed with pCoAT, which contains A^73 TGAA-TATAG^1394 of SEQ ID NO.:1 or with pUrea a plasmid containing the gene for urease (Labigne et al., J. Bacteriol. 173:1920-1931 (1991)) as a negative control, were washed once with M9 salts minimal medium (Molecular Cloning, a laboratory manual, Sambrook, Fritsch and Maniatis, second edition), pellets were stored at -20° C. until just prior to disruption. Thawed cell pellets were resuspended in 1 ml 50 mM phosphate buffer (pH 6.8), 1 mM dithiothreitol (Merck). Cell suspensions were disrupted by sonication and cellular debris removed by centrifugation. For butyrate-acetoacetate-CoA-transferase assays, the buffer used for cell wash and pellets resuspension was: 50 mM MOPS (pH 7.0), 0.5 M (NH4)2SO4, 20% (v/v) glycerol, 1 mM EDTA. Protein concentration in cellular extracts was determined by Bradford's method (1976) using γ globulin as standard (Bio-Rad) and activity expressed in U/mg of protein.
# (§1) Activity was measured by monitoring the increase in A310 corresponding to the formation of acetoacetyl-CoA, as previously described (Howard et al., 1986). The assay contained 67 mM acetoacetate (Aldrich), 300 μM succinyl-CoA and 15 mM MgCl2 in 50 mM Tris-HCl pH 9.1. Under the experiment conditions, ε=7,800 M^-1 cm^-1.
# (§2) The activity assay was performed as described in Example 8 in the presence of the indicated inhibitors. The results are presented below in Table 6
# [2] = target: T1, Hp 3-oxoacid CoA-transferase; experiment: 3-oxoacid CoA transferase activity endogenous in H. pylori lysates, in the presence of inhibitors; format: biochemical; details: substances (50 nM); endogenous enzyme in H. pylori lysate; none = 25 ± 1
# Procedure: as §1
# (§3) The activity assay was performed as described in Example 8, using H. pylori cell lysates.
# as §2
# acetoacetyl CoA thiolase = target: T2, acetoacetyl CoA thiolase (Helicobacter pylori, UniProt O25399); experiment: biochemical; format: biochemical
# T2 construct: mouse-adapted P49 used for mutants
# Procedure: as §1, §3
# The only CoA-transferase activity detected in H. pylori lysates was the one leading to the formation of acetoacetyl CoA from succinyl CoA and acetoacetate in the presence of Mg^2+.
# [3] = target: 3 oxo acid CoA-transferase (Helicobacter pylori, UniProt P56006+P56007); experiment: Reverse reaction of CoA-transferase, disappearance of acetoacetyl CoA at 310 nm; format: biochemical; details: Hp 69A + 2 mM iodoacetamide; Hp 69A alone = 227 ± 4
# Description: As described above, CoA-transferase also catalyzes the reverse reaction, acetoacetyl CoA+succinate→acetoacetate+succinyl CoA. This additional 3-oxoacid CoA-transferase activity is examined in transformed E. coli and H. pylori by measuring the disappearance of acetoacetyl CoA at 310 nm.
# [4] = target: mammalian CoA-transferase (Homo sapiens, UniProt P55809); experiment: Effect on the mammalian CoA-transferase; details: statement that refers to Example 11; no mammalian data printed
# mammalian CoA-transferase, sequence (P55809 40-520): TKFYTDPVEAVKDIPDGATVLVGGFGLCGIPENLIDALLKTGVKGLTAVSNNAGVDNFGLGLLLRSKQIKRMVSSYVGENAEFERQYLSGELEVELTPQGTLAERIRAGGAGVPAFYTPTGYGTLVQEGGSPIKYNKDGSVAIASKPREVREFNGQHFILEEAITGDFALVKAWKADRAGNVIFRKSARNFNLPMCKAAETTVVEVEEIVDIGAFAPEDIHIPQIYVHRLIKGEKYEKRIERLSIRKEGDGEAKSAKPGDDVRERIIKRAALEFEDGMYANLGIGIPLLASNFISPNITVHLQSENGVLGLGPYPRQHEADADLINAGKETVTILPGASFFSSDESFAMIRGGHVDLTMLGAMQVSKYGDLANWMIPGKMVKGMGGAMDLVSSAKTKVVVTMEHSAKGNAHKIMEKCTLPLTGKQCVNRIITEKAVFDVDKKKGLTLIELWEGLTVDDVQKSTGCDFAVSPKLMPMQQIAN
# T1 sequence (P56006 whole entry): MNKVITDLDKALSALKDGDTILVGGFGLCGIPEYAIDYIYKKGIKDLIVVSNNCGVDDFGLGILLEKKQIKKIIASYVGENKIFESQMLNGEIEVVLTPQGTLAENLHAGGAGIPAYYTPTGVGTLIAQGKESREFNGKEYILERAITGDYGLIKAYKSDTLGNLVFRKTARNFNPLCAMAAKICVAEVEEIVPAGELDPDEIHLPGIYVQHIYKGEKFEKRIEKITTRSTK
# T1 sequence (P56007 whole entry): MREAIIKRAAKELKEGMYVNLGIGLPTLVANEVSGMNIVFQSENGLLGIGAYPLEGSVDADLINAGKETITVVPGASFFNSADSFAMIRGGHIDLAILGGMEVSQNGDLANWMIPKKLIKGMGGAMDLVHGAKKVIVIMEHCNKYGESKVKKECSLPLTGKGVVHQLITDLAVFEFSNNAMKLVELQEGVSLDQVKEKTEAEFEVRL
# T2 sequence (O25399 entry or part of it): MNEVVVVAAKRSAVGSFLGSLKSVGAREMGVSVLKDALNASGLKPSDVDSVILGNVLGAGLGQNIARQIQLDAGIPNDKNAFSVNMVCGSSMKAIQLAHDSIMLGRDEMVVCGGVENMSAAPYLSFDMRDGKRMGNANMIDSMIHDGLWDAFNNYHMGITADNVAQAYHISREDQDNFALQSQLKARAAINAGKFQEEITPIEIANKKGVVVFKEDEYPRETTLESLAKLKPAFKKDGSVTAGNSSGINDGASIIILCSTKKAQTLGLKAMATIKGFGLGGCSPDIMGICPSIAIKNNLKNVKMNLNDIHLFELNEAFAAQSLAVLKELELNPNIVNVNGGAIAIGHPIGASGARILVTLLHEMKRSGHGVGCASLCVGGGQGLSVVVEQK
# 3 oxo acid CoA-transferase, sequence (P56007 whole entry): as the sequence (P56007 whole entry) above
# 3 oxo acid CoA-transferase, sequence (P56006 whole entry): as the sequence (P56006 whole entry) above
Structure (SMILES),"Specific activity (mU/mg ± SD), 3-oxoacid CoA transferase, E. coli transformed with pCOA-t [1] [mU/mg]","Specific activity (mU/mg ± SD), 3-oxoacid CoA transferase, H pytori [2] [mU/mg]","CoA transferase specific activity (acetoacetyl CoA thiolase; 2 mM iodoacetamide, H. pylori lysate, 25±2 mU/mg without iodoacetamide) [mU/mg]",fold induction at 2000 µM (acetoacetyl CoA thiolase; read-out: increase of CoA transferase specific activity),"Specific activity (mU/mg), reverse reaction [3] [mU/mg]",inhibition of Hp CoA-transferase (in words) [1],inhibition of the mammalian homologue (in words) [4]
O=C(O)CC(=O)O [disodium malonate],1823 ± 162,27 ± 4,,,,,
O=C(O)CCCC(=O)O [glutaric acid],31 ± 7,16 ± 5,,,,,
NC(=O)CI [iodoacetamide],,,60±2,2.5,257 ± 0,,
O=C(O)CC(S)C(=O)O (stereo not drawn) [mercapto succinic acid],16 ± 13,2 ± 2,,,,inhibit Hp CoA-transferase,not the mammalian homologue
CC(CC(=O)O)C(=O)O (stereo not drawn) [methyl succinic acid],67 ± 51,0 ± 1,,,,inhibit Hp CoA-transferase,not the mammalian homologue
COC(=O)CCC(=O)O [methyl succinic ester],58 ± 49,14 ± 3,,,,,
N[C@@H](CC(=O)O)C(=O)[O-].[Na+] [monosodium aspartate],1859 ± 151,24 ± 1,,,,,
O=C(O)CC(O)C(=O)O (stereo not drawn) [monosodium malate],131 ± 0,22 ± 8,,,,,
